Laboratory results: the supplement of paper PMC10307832

Each cell line was assayed with CN1CCN(CC1)C2=CC(=C(C=C2)NC3=NC(=C(S3)C(=O)C4=C(C=CC=C4Cl)Cl)N)OC [XMD14-99] + O=C(c1cc(Cc2n[nH]c(=O)c3ccccc23)ccc1F)N1CCN(C(=O)C2CC2)CC1 [Olaparib] (partner 8 µM) (assay: relative viability (nuclei count vs DMSO), 5 days (fraction); higher = more cells survive). Conditions: first compound 0.08 µM.
How it was run: (§1)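 Medians of duplicate plates are given as relative viability. That measure is the nuclei count in treated wells divided by the count in vehicle wells. Counts were taken on 4× images of lung cancer cell lines in 1536-well plates, 5 days after pin-tool dosing the day after seeding with one drug alone or a fixed anchor-drug dose plus five library-drug doses (not always all listed) in √10 steps.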

| Cell Line | relative viability |
| --- | --- |
| NCI-H1975 | 0.705 |
| ABC-1 | 0.696 |
| NCI-H358 | 0.603 |
| RERF-LC-KJ | 0.986 |

Same assay, conditions: first compound 0.8 µM

| Cell Line | relative viability |
| --- | --- |
| NCI-H1975 | 0.861 |
| ABC-1 | 1.03 |
| NCI-H358 | 0.773 |
| RERF-LC-KJ | 0.856 |

Same assay, conditions: first compound 2.53 µM

| Cell Line | relative viability |
| --- | --- |
| NCI-H1975 | 0.743 |
| ABC-1 | 0.737 |
| NCI-H358 | 0.585 |
| RERF-LC-KJ | 0.882 |

Same assay, conditions: first compound 8 µM

| Cell Line | relative viability |
| --- | --- |
| NCI-H1975 | 0.522 |
| ABC-1 | 0.673 |
| NCI-H358 | 0.312 |
| RERF-LC-KJ | 0.648 |

The cell lines below were run with N[C@@H]1CCCN(c2c(/C=C3\SC(=O)NC3=O)cccc2-c2ccccc2)C1 [AZD1208] + CS(=O)(=O)N1CCN(Cc2cc3nc(-c4cccc5[nH]ncc45)nc(N4CCOCC4)c3s2)CC1 [Pictilisib] (partner 1 µM) in the same assay as above. Conditions: first compound 0.08 µM.
How it was run: as §1

| Cell Line | relative viability |
| --- | --- |
| NCI-H1975 | 0.285 |
| ABC-1 | 0.526 |
| NCI-H358 | 0.35 |
| RERF-LC-KJ | 0.434 |

Same assay, conditions: first compound 0.253 µM

| Cell Line | relative viability |
| --- | --- |
| NCI-H1975 | 0.252 |
| ABC-1 | 0.665 |
| NCI-H358 | 0.284 |
| RERF-LC-KJ | 0.526 |

Same assay, conditions: first compound 0.8 µM

| Cell Line | relative viability |
| --- | --- |
| NCI-H1975 | 0.242 |
| ABC-1 | 0.565 |
| NCI-H358 | 0.333 |
| RERF-LC-KJ | 0.464 |

Same assay, conditions: first compound 2.53 µM

| Cell Line | relative viability |
| --- | --- |
| NCI-H1975 | 0.28 |
| ABC-1 | 0.623 |
| NCI-H358 | 0.299 |
| RERF-LC-KJ | 0.438 |

Same assay, conditions: first compound 8 µM

| Cell Line | relative viability |
| --- | --- |
| NCI-H1975 | 0.238 |
| ABC-1 | 0.627 |
| NCI-H358 | 0.283 |
| RERF-LC-KJ | 0.368 |

Each cell line was assayed with N[C@@H]1CCCN(c2c(/C=C3\SC(=O)NC3=O)cccc2-c2ccccc2)C1 [AZD1208] + NC(=O)Nc1cc(-c2cccc(F)c2)sc1C(=O)N[C@H]1CCCNC1 [AZD7762] (partner 0.2 µM) in the same assay as above. Conditions: first compound 0.08 µM.
How it was run: as §1

| Cell Line | relative viability |
| --- | --- |
| NCI-H1975 | 0.746 |
| ABC-1 | 0.905 |
| NCI-H358 | 0.454 |
| RERF-LC-KJ | 0.991 |

Same assay, conditions: first compound 0.253 µM

| Cell Line | relative viability |
| --- | --- |
| NCI-H1975 | 0.784 |
| ABC-1 | 0.728 |
| NCI-H358 | 0.579 |
| RERF-LC-KJ | 1.08 |

Same assay, conditions: first compound 0.8 µM

| Cell Line | relative viability |
| --- | --- |
| NCI-H1975 | 0.691 |
| ABC-1 | 0.785 |
| NCI-H358 | 0.436 |
| RERF-LC-KJ | 0.631 |

Same assay, conditions: first compound 2.53 µM

| Cell Line | relative viability |
| --- | --- |
| NCI-H1975 | 0.746 |
| ABC-1 | 0.884 |
| NCI-H358 | 0.467 |
| RERF-LC-KJ | 0.759 |

Same assay, conditions: first compound 8 µM

| Cell Line | relative viability |
| --- | --- |
| NCI-H1975 | 0.642 |
| ABC-1 | 1.35 |
| NCI-H358 | 0.451 |
| RERF-LC-KJ | 0.611 |

These cell lines were tested with N[C@@H]1CCCN(c2c(/C=C3\SC(=O)NC3=O)cccc2-c2ccccc2)C1 [AZD1208] + Nc1ncn([C@H]2C[C@H](O)[C@@H](CO)O2)c(=O)n1 [Decitabine] (partner 2 µM) in the same assay as above. Conditions: first compound 0.08 µM.
How it was run: as §1

| Cell Line | relative viability |
| --- | --- |
| NCI-H1975 | 0.356 |
| ABC-1 | 0.926 |
| NCI-H358 | 0.206 |
| RERF-LC-KJ | 0.66 |

Same assay, conditions: first compound 0.253 µM

| Cell Line | relative viability |
| --- | --- |
| NCI-H1975 | 0.412 |
| ABC-1 | 1.07 |
| NCI-H358 | 0.188 |
| RERF-LC-KJ | 0.674 |

Same assay, conditions: first compound 0.8 µM

| Cell Line | relative viability |
| --- | --- |
| NCI-H1975 | 0.357 |
| ABC-1 | 0.992 |
| NCI-H358 | 0.185 |
| RERF-LC-KJ | 0.632 |

Same assay, conditions: first compound 2.53 µM

| Cell Line | relative viability |
| --- | --- |
| NCI-H1975 | 0.377 |
| ABC-1 | 0.989 |
| NCI-H358 | 0.207 |
| RERF-LC-KJ | 0.586 |

Same assay, conditions: first compound 8 µM

| Cell Line | relative viability |
| --- | --- |
| NCI-H1975 | 0.284 |
| ABC-1 | 0.821 |
| NCI-H358 | 0.197 |
| RERF-LC-KJ | 0.555 |
